Data reported in patent publication US12031173B2, “Methods of producing polyol lipids” (THE REGENTS OF THE UNIVERSITY OF CALIFORNIA, priority 2016, dated 2024).

Assay: Surface tension of aqueous PEFA solutions, Wilhelmy plate method
Type: physicochemical
Conditions: aqueous solution
Protocol: Surface Tension: Surface tensions were measured, using Wilhelmy plate method (Digital Tensiometer K10ST, KRÜSS) for different concentrations of PEFA in aqueous solution. The stabilization time was from 30 minutes in higher concentration to as long as 2 hours in lower concentration (below 2.5 mg/L). The final data was recorded when the measured surface tension became stable.

Average area occupied by each molecule: 54.7 Å^2/molecule
Surface excess concentration: 2.93 × 10^−6 mol/m^2
Critical Micelle Concentration (Wilhelmy plate): 15.2 mg/L
Minimum surface tension (Wilhelmy plate): 36.8 mN/m
Slope of linear part for surface tension line (Wilhelmy plate): −11.14 mN/m
Structure (SMILES): CC(=O)OC[C@H]1O[C@H]2O[C@@H](C)CCCCCC/C=C\CCCCCCCC(=O)O[C@H]3[C@H](O)[C@@H](O)[C@H](O[C@@H]2[C@@H](O)[C@@H]1O)O[C@@H]3COC(C)=O [Sophorolipid, 1′,4″-Sophorolactone 6′,6″-diacetate]
